What all share (conditions): human
The test system of series [1] is Hepatotoxicity. The experiment in a line: FDA HLAED, liver enzyme composite activity.
Series [2] has as its system Hepatotoxicity. The experiment in a line: FDA HLAED, alkaline phosphatase increase.
The test system of series [3] is Hepatotoxicity. The experiment in a line: FDA HLAED, serum glutamic oxaloacetic transaminase (SGOT) increase.
Series [4] deals with Hepatotoxicity. The series is described as follows: FDA HLAED, serum glutamic pyruvic transaminase (SGPT) increase.
The test system of series [5] is Hepatotoxicity. The experiment in a line: FDA HLAED, lactate dehydrogenase (LDH) increase.
Series [6] relates to Hepatotoxicity. The series is described as follows: FDA HLAED, gamma-glutamyl transferase (GGT) increase.

Experimental findings from ChEMBL document CHEMBL1697781, “Assessment of the health effects of chemicals in humans: II. Construction of an adverse effects database for QSAR modeling” (Curr Drug Discov Technol, 2004) are described below.
Wherever GGT Increase - Index Value is given: reference of the scale not given here.
Wherever LDH Increase - Index Value is given: reference of the scale not given here.

Take `Cc1cc(C2CCCCC2)n(O)c(=O)c1` [CICLOPIROX]: in the series with Hepatotoxicity [1], the “Composite Activity - Active” value worked out at 0, the “Composite Activity - Marginal” value came out at 0 and the “Composite Activity - Score” value is on record as “Inactive”. Also, in the series on Hepatotoxicity [2], the “Alkaline Phosphatase Increase - Activity Score” value is “Inactive”, the “Alkaline Phosphatase Increase - Index Value” turned out to be 0 and the “Alkaline Phosphatase Increase - Number of Reports” value is recorded as below 4. For the same compound, in the series with Hepatotoxicity [3], the “SGOT Increase - Activity Score” value is reported as “Inactive”, the “SGOT Increase - Index Value” is reported as 0 and the “SGOT Increase - Number of Reports” value is reported as below 4. In addition, in the series with Hepatotoxicity [4], the “SGPT Increase - Activity Score” value is given as “Inactive”, the “SGPT Increase - Index Value” worked out at 0 and the “SGPT Increase - Number of Reports” value was below 4. Besides, in the series on Hepatotoxicity [5], the “LDH Increase - Activity Score” value is “Inactive”, the “LDH Increase - Index Value” is on record as 0 and the “LDH Increase - Number of Reports” value was below 4. In addition, in the series on Hepatotoxicity [6], the “GGT Increase - Activity Score” value is listed as “Inactive”, the “GGT Increase - Index Value” was found to be 0 and the “GGT Increase - Number of Reports” value is below 4.

For `OC[C@H]1O[C@@H](n2cnc3c2NC=NC[C@H]3O)C[C@@H]1O` [PENTOSTATIN], in the series with Hepatotoxicity [1], the “Composite Activity - Active” value is listed as 0, the “Composite Activity - Marginal” value is 0 and the “Composite Activity - Score” value was “Inactive”. Also, in the series on Hepatotoxicity [2], the “Alkaline Phosphatase Increase - Activity Score” value is recorded as “Inactive”, the “Alkaline Phosphatase Increase - Index Value” came to 0 and the “Alkaline Phosphatase Increase - Number of Reports” value is recorded as below 4. In addition, in the series with Hepatotoxicity [3], the “SGOT Increase - Activity Score” value is on record as “Inactive”, the “SGOT Increase - Index Value” stood at 0 and the “SGOT Increase - Number of Reports” value is recorded as below 4. In the series on Hepatotoxicity [4], the “SGPT Increase - Activity Score” value is recorded as “Inactive”, the “SGPT Increase - Index Value” is 0 and the “SGPT Increase - Number of Reports” value is listed as below 4. Further, in the series on Hepatotoxicity [5], the “LDH Increase - Activity Score” value is on record as “Inactive”, the “LDH Increase - Index Value” came to 0 and the “LDH Increase - Number of Reports” value is below 4. For the same compound, in the series on Hepatotoxicity [6], the “GGT Increase - Activity Score” value is “Inactive”, the “GGT Increase - Index Value” is 0 and the “GGT Increase - Number of Reports” value was below 4.

As to `CC(=O)OCC(CCn1cnc2cnc(N)nc21)COC(C)=O` [FAMCICLOVIR], in the series on Hepatotoxicity [1], the “Composite Activity - Active” value worked out at 0, the “Composite Activity - Marginal” value amounted to 0 and the “Composite Activity - Score” value is reported as “Inactive”. Also, in the series with Hepatotoxicity [2], the “Alkaline Phosphatase Increase - Activity Score” value is recorded as “Inactive”, the “Alkaline Phosphatase Increase - Index Value” is given as 0 and the “Alkaline Phosphatase Increase - Number of Reports” value is given as below 4. In addition, in the series with Hepatotoxicity [3], the “SGOT Increase - Activity Score” value is on record as “Inactive”, the “SGOT Increase - Index Value” was determined as 0 and the “SGOT Increase - Number of Reports” value was below 4. Moreover, in the series with Hepatotoxicity [4], the “SGPT Increase - Activity Score” value is “Inactive”, the “SGPT Increase - Index Value” amounted to 0 and the “SGPT Increase - Number of Reports” value is below 4. Also, in the series on Hepatotoxicity [5], the “LDH Increase - Activity Score” value was “Inactive”, the “LDH Increase - Index Value” came to 0 and the “LDH Increase - Number of Reports” value is below 4. In addition, in the series on Hepatotoxicity [6], the “GGT Increase - Activity Score” value is on record as “Inactive”, the “GGT Increase - Index Value” is reported as 0 and the “GGT Increase - Number of Reports” value is listed as below 4.
